Consider 17 molecules from patent publication US11976083B2, “Inhibitors of peptidylarginine deiminases” (Gilead Sciences, Inc., priority 2020, dated 2024).

The assay concerns the target T1, human PAD4 (Homo sapiens, UniProt Q9UM07).
T1 construct: human PAD4 (NM_012387), A2-P663, was PCR amplified; His-SUMO (N, cleaved yes); made in house; host or cells: E. coli BL21(DE3)
Description: In vitro PAD4 BAEE biochemical assay. The note with it: BAEE substrate 3 mM, 5 nM PAD4, 2 mM calcium chloride; geometric mean of multiple experiments. An outline of the steps:
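PAD4 5 nM, CaCl2 2 mM, BAEE 3 mM final; 50 mM MOPS pH 7.6, 50 mM NaCl, 0.05% Tween-20, 2 mM DTT. Cpd + enzyme 30 min 25 °C; substrate 2 h 25 °C; EDTA stop; OPA detection 1 h. IC50 4-parameter fit.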

T1 sequence (Q9UM07 2-663): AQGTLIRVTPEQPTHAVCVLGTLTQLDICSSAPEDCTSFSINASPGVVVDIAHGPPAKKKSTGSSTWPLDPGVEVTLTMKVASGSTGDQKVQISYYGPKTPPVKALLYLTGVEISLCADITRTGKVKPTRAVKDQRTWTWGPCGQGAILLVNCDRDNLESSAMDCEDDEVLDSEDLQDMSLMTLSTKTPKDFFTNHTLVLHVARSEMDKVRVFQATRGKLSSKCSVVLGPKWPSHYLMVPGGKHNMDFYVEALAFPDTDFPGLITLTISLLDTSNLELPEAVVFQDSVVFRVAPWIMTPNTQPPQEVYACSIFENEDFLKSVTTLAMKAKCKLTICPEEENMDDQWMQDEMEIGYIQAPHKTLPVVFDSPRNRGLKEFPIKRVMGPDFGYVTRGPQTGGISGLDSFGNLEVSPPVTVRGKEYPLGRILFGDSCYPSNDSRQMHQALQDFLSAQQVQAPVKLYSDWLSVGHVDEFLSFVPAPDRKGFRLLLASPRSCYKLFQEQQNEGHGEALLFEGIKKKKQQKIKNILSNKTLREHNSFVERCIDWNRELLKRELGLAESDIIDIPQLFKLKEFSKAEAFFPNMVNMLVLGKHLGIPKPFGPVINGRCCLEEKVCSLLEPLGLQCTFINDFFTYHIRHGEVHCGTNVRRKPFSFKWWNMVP

As a reminder, the IC50 is the concentration that gives 50% inhibition. In the case of `COc1cc(C(=O)N2CCC[C@@H](N)[C@H]2C)cc2nc(-c3cc4ccc5nc4n3CCCCCc3nc4ccsc4cc3C(=O)N[C@@H]5C)n(C)c12` [Example 793, (2~{R})-20-[5-[(2~{R},3~{R})-3-amino-2-methyl-piperidine-1-carbonyl]-7-methoxy-1-methyl-benzimidazol-2-yl]-2-methyl-8-thia-3,12,19,25-tetrazapentacyclo[17.5.2.0^ {5,13}.0^{7,11}.0^{22,26}] hexacosa-1(24),5(13),6,9, 11,20,22,25-octaen-4-one], the IC50 amounted to 0.024 µM.

In the case of `COc1cc(C(=O)N2[C@H]3CC[C@@H]2[C@H](N)C3)cc2nc(-c3cc4ccc5cc4n3CCCCCCC(=O)Nc3ncccc3-5)n(C)c12` [Example 88, 17-[5-[(1˜{R},2˜{R},4˜{S})-2-amino-7-azabicyclo[2.2.1]heptane-7-carbonyl]-7-methoxy-1-methyl-benzimidazol-2-yl]-6,8,16-triazatetracyclo[14.5.2.0^{2,7}.0^{19,23}]tricosa-1(22),2,4,6,17,19(23),20-heptaen-9-one], the IC50 stood at 0.097 µM.

On to `COc1cc(C(=O)N2[C@H]3CC[C@@H]2[C@H](N)C3)cc2nc(-c3cc4ccc5nc4n3CCCCC[C@@H](OC)C(C)(C)C(=O)N[C@@H]5C)n(C)c12` [Example 219, (7~{R},11~{R})-17-[5-[(1~{R},2~{R},4~{S})-2-amino-7-azabicyclo[2.2.1]heptane-7-carbonyl]-7-methoxy-1-methyl-benzimidazol-2-yl]-7-methoxy-8,8,11-trimethyl-1,10,19-triazatricyclo[10.5.2.0^{15,18}]nonadeca-12(19),13,15(18),16-tetraen-9-one], for which the IC50 is 0.072 µM.

On to `COc1cc(C(=O)N2C[C@H]3C[C@@H]2[C@@H]3N)cc2nc(-c3cc4ccc5nc4n3CC(F)(F)CCC[C@@H]3C[C@H]3C(=O)N[C@@H]5C)n(C)c12` [Example 666, (2~{R},5~{R},7~{R})-14-[5-[(1~{R},4~{R},5~{R})-5-amino-2-azabicyclo [2.1.1]hexane-2-carbonyl]-7-methoxy-1-methyl-benzimidazol-2-yl]-11,11-difluoro-2-methyl-3,13,19-triazatetracyclo [11.5.2.0^{5,7}.0^{16,20}] icosa-1(19),14,16(20),17-tetraen-4-one], for which the IC50 was found to be 0.086 µM.

In the case of `COc1cc(C(=O)N2C[C@H](N)[C@@H]3CC[C@H]2C3)cc2nc(-c3cc4ccc5nc4n3CC(F)(F)CCCOC(C)(C)C(=O)N[C@@H]5C)n(C)c12` [Example 460, (11~{R})-17-[5-[(1~{S},4~{R},5~{R})-4-amino-2-azabicyclo[3.2.1]octane-2-carbonyl]-7-methoxy-1-methyl-benzimidazol-2-yl]-3,3-difluoro-8,8,11-trimethyl-7-oxa-1,10,19-triazatricyclo[10.5.2.0^{15,18}]nonadeca-12(19),13,15(18),16-tetraen-9-one], the IC50 was found to be 0.071 µM.

With `COc1cc(C(=O)N2CC3(CCCNC3)C2)cc2nc(-c3cc4ccc5nc4n3CCCCC[C@@H]3CC3C(=O)N[C@@H]5C)n(C)c12` (some centres unmarked) [Example 508, (2~{R},7~{R})-14-[5-(2,8-diazaspiro [3.5]nonane-2-carbonyl)-7-methoxy-1-methyl-benzimidazol-2-yl]-2-methyl-3,13,19-triazatetracyclo[11.5.2.0^ {5,7}.0^{16,20}]icosa-1(19),14,16(20),17-tetraen-4-one], the 50% inhibitory concentration (IC50) was 0.057 µM.

Turning to `COc1cc(C(=O)N2C[C@H](N)[C@@H]3CC[C@H]2C3)cc2nc(-c3cc4ccc5nc4n3CC(F)(F)CCC[C@@H]3C[C@@]3(C)C(=O)N[C@@H]5C)n(C3CC3)c12` [Example 924, (2~{R},5~{R},7~{R})-14-[5-[(1~{S),4~{R},5~{R})-4-amino-2-azabicyclo[3.2.1]octane-2-carbonyl]-1-cyclopropyl-7-methoxy-benzimidazol-2-yl]-11,11-difluoro-2,5-dimethyl-3,13,19-triazatetracyclo [11.5.2.0^{5,7}.0^{16,20}] icosa-1(19),14,16(20), 17-tetraen-4-one], the concentration for half-maximal inhibition (IC50) is 0.046 µM.

Consider `COc1cc(C(=O)N2CCC[C@@H](N)[C@H]2C)cc2nc(-c3cc4ccc5nc4n3CC(F)(F)CCC[C@@H]3C[C@H]3C(=O)N[C@@H]5C)n(C)c12` [Example 852, (2~{R},5~{R},7~{R})-14-[5-[(2~{R},3~{R})-3-amino-2-methyl-piperidine-1-carbonyl]-7-methoxy-1-methyl-benzimidazol-2-yl]-11,11-difluoro-2-methyl-3,13,19-triazatetracyclo[11.5.2.0^ {5,7).0^{16,20}]icosa-1(19), 14,16(20),17-tetraen-4-one], for which the IC50 came to 0.016 µM.

For `C[C@H]1NC(=O)[C@@H]2C[C@@]2(F)CCCCCn2c(-c3nc4cc(C(=O)N5C[C@H](N)[C@@H]6CC[C@H]5C6)cc(OC(F)(F)F)c4n3C)cc3ccc1nc32` [Example 715, (2~{R},5~{S},7~{S})-14-[5-[(1~{S},4~{R},5~{R})-4-amino-2-azabicyclo[3.2.1]octane-2-carbonyl]-1-methyl-7-(trifluoromethoxy)benzimidazol-2-yl]-7-fluoro-2-methyl-3,13,19-triazatetracyclo[11.5.2.0^ {5,7}.0^{16,20}]icosa-1(19), 14,16(20),17-tetraen-4-one], the IC50 was determined as 0.019 µM.

Take `COc1cc(C(=O)N2CCC[C@@H](N)C2)cc2nc(-c3cc4ccc5nc4n3C[C@H]3C[C@H]3COCC3(CC3)C(=O)N[C@@H]5C)n(C)c12` [Example 311, (3~{S],5~{R},12~{R})-18-[5-[(3~{R})-3-aminopiperidine-1-carbonyl]-7-methoxy-1-methyl-benzimidazol-2-yl]-12-methyl-spiro[7-oxa-1,11,20-triazatetracyclo[11.5.2.0^{3,5}.0^{16,19}]icosa-13(20),14,16(19),17-tetraene-9,1′-cyclopropane]-10-one]: the IC50 is 0.175 µM.

For the molecule `COc1cc(C(=O)N2C[C@H](N)[C@@H]3CC[C@H]2C3)cc2nc(-c3cc4ccc5nc4n3CCCCCC[C@](F)(c3ccccn3)C(=O)N[C@@H]5C)n(C3CC3)c12` (single isomer, unassigned) [Example 945, (8˜{S},11˜{R})-17-[5-[(1˜{S},4˜{R},5˜{R})-4-amino-2-azabicyclo[3.2.1]octane-2-carbonyl]-1-cyclopropyl-7-methoxy-benzimidazol-2-yl]-8-fluoro-11-methyl-8-(2-pyridyl)-1,10,19-triazatricyclo[10.5.2.0^{15,18}]nonadeca-12(19),13,15(18),16-tetraen-9-one], the IC50 is 0.034 µM.

As to `COc1cc(C(=O)N2CCC[C@@H](N)C2)cc2nc(-c3cc4ccc5nc4n3C[C@@H]3C[C@H]3COC[C@@H](C)C(=O)N[C@@H]5C)n(C)c12` [Example 265, (5~{R},9~{R},12~{R})-18-[5-[(3~{R})-3-aminopiperidine-1-carbonyl]-7-methoxy-1-methyl-benzimidazol-2-yl]-9,12-dimethyl-7-oxa-1,11,20-triazatetracyclo[11.5.2.0^{3,5}.0^{16,19}] icosa-13(20),14,16(19),17-tetraen-10-one], the IC50 came out at 0.081 µM.

Regarding `C[C@H]1NC(=O)C(C)(C)CCCCCCn2c(-c3nc4cc(C(=O)N[C@H]5CNCC[C@@H]5F)c(F)c(F)c4n3C)cc3ccc1nc32` [Example 538, 6,7-difluoro-~{N}-[(3~ {S},4~{S})-4-fluoro-3-piperidyl]-1-methyl-2-[(11~{R})-8,8,11-trimethyl-9-oxo-1,10,19-triazatricyclo[10.5.2.0^ {15,18}]nonadeca-12(19),13,15(18),16-tetraen-17-yl]benzimidazole-5-carboxamide], the IC50 came out at 0.09 µM.

For the molecule `CO[C@@H]1CCN(C(=O)c2cc(F)c3c(c2)nc(-c2cc4ccc5nc4n2CCCCCc2ccnc(C)c2C(=O)N[C@@H]5C)n3C2CC2)C[C@@H]1N` [Example 698, (2~{R})-17-[5-[(3~{S),4~ {R})-3-amino-4-methoxy-piperidine-1-carbonyl]-1-cyclopropyl-7-fluoro-benzimidazol-2-yl]-2,6-dimethyl-3,7,16,22-tetrazatetracyclo[14.5.2.0^ {5,10).0^{19,23}]tricosa-1(22),5(10),6,8,17,19(23),20-heptaen-4-one], the half-inhibitory concentration (IC50) was found to be 0.068 µM.

Consider `CO[C@@H]1CCN(C(=O)c2cnc3c(c2)nc(-c2cc4ccc5nc4n2CCCCC[C@@H]2C[C@H]2C(=O)N[C@@H]5C)n3C2CC2)C[C@@H]1N` [Example 574, (2~{R},5~{R},7~{R})-14-[6-[(3~{S},4~{R})-3-amino-4-methoxy-piperidine-1-carbonyl]-3-cyclopropyl-imidazo [4,5-b]pyridin-2-yl]-2-methyl-3,13,19-triazatetracyclo [11.5.2.0^{5,7}.0^{16,20}] icosa-1(19),14,16(20),17-tetraen-4-one], for which the half-inhibitory concentration (IC50) was found to be 0.117 µM.

In the case of `COc1cc(C(=O)N[C@H]2CNCC[C@@H]2F)cc2nc(-c3cc4ccc5nc4n3C[C@H]3C[C@H]3COCCC(=O)N[C@@H]5C)n(C)c12` [Example 315, ~{N}-[(3~{S},4~{S})-4-fluoro-3-piperidyl]-7-methoxy-1-methyl-2-[(3~{S},5~{R},12~{R})-12-methyl-10-oxo-7-oxa-1,11,20-triazatetracyclo[11.5.2.0^{3,5}.0^{16,19}]icosa-13(20),14,16(19),17-tetraen-18-yl]benzimidazole-5-carboxamide], the IC50 was determined as 0.045 µM.

Regarding `COc1cc(C(=O)N2CC[C@@H](C(F)(F)F)[C@@H](N)C2)cc2nc(-c3cc4ccc5nc4n3CCCCCCC(C)(C)C(=O)N[C@@H]5C)n(C)c12` [Example 192, (11~{R})-17-[5-[(3~{R},4~{R})-3-amino-4-(trifluoromethyl)piperidine-1-carbonyl]-7-methoxy-1-methyl-benzimidazol-2-yl]-8,8,11-trimethyl-1,10,19-triazatricyclo[10.5.2.0^{15,18}]nonadeca-12(19),13,15(18),16-tetraen-9-one], the IC50 came out at 6.69 µM.
